Marks after values point to notes of the source that are not given here.
Legend:
[1] = tested on: pancreatic cancer cells PANC-1; test: Tumor inhibition in nude mice bearing pancreatic cancer cells PANC-1; type: in vivo; settings: for Tumor inhibition rate: Table 4, avg tumor volume 136 mm^3, intratumoral every 3 days x3, ≤150 μl, next day; for Tumor inhibition rate of intraperitoneal injection / Tumor inhibition rate of intratumoral injection: Table 3, avg tumor volume 105 mm^3, 100 μl/mouse every 3 days x3, next day after last dose
Method: (§1) They were injected intraperitoneally and intratumorally.
After anatomy, the tumor weight was measured and the tumor inhibition rate was calculated.

breast cancer 4T1 cells = test: Tumor weight and tumor inhibition in BALB/c mice bearing breast cancer 4T1 cells; settings: for Tumor inhibition rate / Tumor weight / Tumor weight (x ± s): intratumoral 150 μl/mouse every 3 days x3; for Intratumoral injection Tumor inhibition rate / Intratumoral injection Tumor weight: Table 10, avg tumor volume 336 mm^3, 150 μl/mouse every 3 days x3, 5th day after last dose;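 as to all read-outs here: subcutaneous grafts in the right axilla, tumors excised and weighed after euthanasia, inhibition rate derived from group mean tumor weight versus the negative control group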
Method: In the following examples, unless otherwise specified, animal tests of subcutaneous transplantation tumors were performed in accordance with test guidelines issued by a drug administration authority. […] The subcutaneous transplantation was carried out according to a conventional method for subcutaneous inoculation of tumor cells. […] Items to be observed, measured and analyzed in the experiments included general status, body weight, food intake, tumor volume, tumor weight, thymus weight, spleen weight, and the like.
The tumor growth inhibition rate (abbreviated as tumor inhibition rate in the present invention) is calculated through the following equation:
wherein TW is an average tumor weight of a study group; CW is an average tumor weight of a negative control group.
The effects of the co-use of drugs (including efficacy and safety) can theoretically be based on the judgment of q:
q=actual combined effect/theoretical expected effect of simple addition.
When q=1, the actual combined effect meets the theoretical expectation, showing an additive effect; when q<1, the actual combined effect is weaker than the theoretical expectation, showing an antagonistic effect; and when q>1, the actual combined effect exceeds the theoretical expectation, showing a synergic effect. Unless otherwise specified, single-use efficacy of A or B (denoted as EA and EB respectively) and the actual combined efficacy of A/B (denoted as EA+B) are both tumor inhibition rates.
In one experiment, the test animal was a BALB/c mouse, the modeling cells were breast cancer 4T1 cells, and the transplantation tumor was modeled at 1×10^6 cells/mouse under the skin of the animal's right axilla. […] The experimental groups were divided into 1 negative control group (group 0) and 13 study groups (groups 1-13). They were all injected intratumorally. […] Each group was administered once every 3 days for a total of 3 times, each time at an injection dose of 150 μl//mouse. During the administration, general state of the animals and the degree of necrosis of normal tissues around the tumor after the administration were observed. On the 5th day after the administration was ended, the animals were euthanized, and the tumor weight was measured after anatomy to the animals. The tumor inhibition rate was calculated from the negative control group of each administration mode.
In another experiment, the test animal was a BALB/c mouse, the modeling cells were breast cancer 4T1 cells, and the transplantation tumor was modeled at 1×10^6 cells/mouse under the skin of the animal's right axilla. […] Each group was administered by intratumoral injection once every 3 days for a total of 3 times, each time at an injection dose of 150 μl/mouse. On the 5th day after the administration was ended, the animals were euthanized, and the tumor weight was measured after anatomy to the animals. The tumor inhibition rate was calculated from the negative control group.
In another experiment, the test animal was BALB/c mice, the modeling cells were breast cancer 4T1 cells, and the transplantation tumor was modeled at 1×10^6 cells/mouse under the skin of the animal's right axilla. […] Each group was administered by intratumoral injection once every 3 days for a total of 3 times, each time at an injection dose of 150 μl/mouse. On the 5th day after the administration was ended, the animals were euthanized, and the tumor weight was measured after anatomy to the animals. The tumor inhibition rate was calculated from the negative control group.
In another experiment, the test animal was a BALB/c mouse, the modeling cells were breast cancer 4T1 cells, and the transplantation tumor under the skin of the animal's right axilla was modeled at 1×10^6 cells/mouse.

[2] = pH of the drug composition; type: physicochemical; settings: Table 15; aqueous solution
[3] = tested on: human liver cancer cells (HepG2); test: Tumor weight and tumor inhibition in nude mice bearing HepG2; type: in vivo; settings: for Intratumoral injection Tumor inhibition rate / Intratumoral injection Tumor weight / Tumor inhibition rate of intraperitoneal injection: 5th day after last dose; for Y(%) tumor inhibition rate: intratumoral every 3 days x3, <150 μl, fifth day
Method: One of the core characteristics of tumors is heterogeneity. […] The corresponding negative control was normal saline.
as §1
The negative control group was given normal saline. The compositions of the study drug are as shown in the table below: 4 types and concentrations of amino acid based nutrient single drugs (X % amino acid based nutrients), 18 types and concentrations of ineffective absorption drugs (Y % ineffective absorption drugs), 24 compositions comprising various types and concentrations of amino acid based nutrients and ineffectively absorption drugs (X % amino acid based nutrients/Y % ineffectively absorption drugs).
The negative control was normal saline. The compositions of 16 study drugs, as shown in the table below, comprise: a 5-fluorouracil single drug of 4 varying concentrations (X % 5-fluorouracil), and an amino acid based nutrient with 5 varying concentrations (Y % amino acid based nutrient), 7 compositions consisting of 5-fluorouracil of varying concentrations and an amino acid based nutrient of varying concentrations (X % 5-fluorouracil/Y % amino acid based nutrient). […] The dose at each time was: 5-fluorouracil 50 mg/kg, glutathione ≤1 g/kg, and an injection volume was ≤150 μl/mouse.
The negative control was normal saline, the positive control was 1% 5-fluorouracil, and the study drug was 1% methylene blue/10% amino acid based nutrient composition (the type of the amino acid based nutrient is variable). The amino acid based nutrients in the compositions used in study groups 1-13 were: arginine, glycine, cysteine hydrochloride, valine, threonine, proline, histidine hydrochloride, phenylalanine, lysine, leucine, alanine, glutathione, serine, and the study drug used in the study group 14 was 1% methylene blue/5% arginine/5% glycine.

[4] = Table 17, avg tumor volume 317 mm^3, fifth day
[5] = Table 15, avg tumor volume 316 mm^3, 5th day
[6] = Table 12, avg tumor volume 317 mm^3, 5th day
[7] = Table 16, avg tumor volume 169 mm^3, intratumoral every 3 days x3, ≤150 μl/mouse, 5th day
[8] = Table 6, avg tumor volume 153 mm^3, ≤120 μl/mouse every 3 days x3
[9] = Table 11, avg tumor volume 164 mm^3, intratumoral every 3 days x3, ≤150 μl, fifth day after last dose
[10] = Table 8, avg tumor volume 175 mm^3, ≤150 μl/mouse every 3 days x3
[11] = Table 14, avg tumor volume 325 mm^3, 5th day

In the case of `Cl.N[C@@H](CCC(=O)O)C(=O)O` [0.15% glutamic hydrochloride, L-glutamic hydrochloride], the Tumor inhibition rate ([1]; hydrochloride) is reported as 16%.
Molecule `N=C(N)NCCC[C@H](N)C(=O)O` [2.5% arginine, L-arginine] has a Tumor inhibition rate (breast cancer 4T1 cells; [4]) of 5% and a Tumor weight (breast cancer 4T1 cells; [4]) of 1.48 ± 0.32 g.
In the case of `NCC(=O)O` [15% glycine, Glycine], the “Drug pH” value [2] is reported as 6.8, the Tumor inhibition rate (breast cancer 4T1 cells; [5]) is reported as 17% and the “Tumor weight (x ± s)” value (breast cancer 4T1 cells; [5]) is reported as 1.81 ± 0.26 g.
In the case of `N=C(N)NCCC[C@H](N)C(=O)O` [4% arginine, L-arginine], the Tumor inhibition rate (breast cancer 4T1 cells; [6]) is reported as 2% and the “Tumor weight (x ± s)” value (breast cancer 4T1 cells; [6]) is reported as 2.31 g.
For `O=c1[nH]cc(F)c(=O)[nH]1` [0.5% 5-fluorouracil, 5-fluorouracil], the Tumor inhibition rate [3, 7] was “(59%)*”.
For `CC/C=C\C/C=C\C/C=C\C/C=C\C/C=C\C/C=C\CCC(=O)O` [5% DHA, Docosahexaenoic acid (DHA)], the “Intratumoral injection Tumor inhibition rate” value [3, 8] was 27%, the “Intratumoral injection Tumor weight” value [3, 8] was 1.69 ± 0.33 g and the “Tumor inhibition rate of intraperitoneal injection” value [3, 8] was 4%. The Tumor inhibition rate [3, 9] was “(28%)”.
For `N[C@@H](CCC(=O)N[C@@H](CS)C(=O)NCC(=O)O)C(=O)O` [3% glutathione, Reduced glutathione], the Tumor inhibition rate [1] was 12%.
With `N=C(N)NCCC[C@H](N)C(=O)O` [10% arginine, L-arginine] the Tumor inhibition rate [1] was 43%, the Tumor inhibition rate [3, 9] was “(43%)” and the Tumor inhibition rate (breast cancer 4T1 cells; [6]) was 19%. The “Tumor weight (x ± s)” value (breast cancer 4T1 cells; [6]) was 1.91 g, the Tumor inhibition rate (breast cancer 4T1 cells; [4]) was 21% and the Tumor weight (breast cancer 4T1 cells; [4]) was 1.23 ± 0.31 g.
With `O=C1OC2(c3cc(I)c(O)c(I)c3Oc3c2cc(I)c(O)c3I)c2c(Cl)c(Cl)c(Cl)c(Cl)c21` [5% Bengal Red, Bengal Red] the Tumor inhibition rate [3, 9] was “(46%)”.
`N=C(N)NCCC[C@H](N)C(=O)O` [5% arginine, L-arginine] showed a Tumor inhibition rate [1] of 16%, a Tumor inhibition rate (breast cancer 4T1 cells; [4]) of 10% and a Tumor weight (breast cancer 4T1 cells; [4]) of 1.40 ± 0.26 g.
For `CN(C)c1ccc2nc3ccc(=[N+](C)C)cc-3sc2c1` [0.7% methylene blue, Methylene blue], the “Intratumoral injection Tumor inhibition rate” value [3, 8] was 13%, the “Intratumoral injection Tumor weight” value [3, 8] was 2.02 ± 0.31 g and the “Tumor inhibition rate of intraperitoneal injection” value [3, 8] was 2%.
With `CC(=O)O` [20% acetic acid, acetic acid] the Tumor inhibition rate [3, 9] was “(92%)**”.
`N[C@@H](CCC(=O)N[C@@H](CS)C(=O)NCC(=O)O)C(=O)O` [1% glutathione, Reduced glutathione] gave a Tumor inhibition rate [1] of 11%.
With `CC/C=C\C/C=C\C/C=C\C/C=C\C/C=C\C/C=C\CCC(=O)O` [3% DHA, Docosahexaenoic acid (DHA)] the Tumor inhibition rate [3, 9] was “(21%)”.
In the case of `CC(=O)O` [1% acetic acid, acetic acid], the Tumor inhibition rate [3, 9] is reported as “(26%)”.
For `Cl` [0.25% hydrochloric acid, hydrochloric acid], the Tumor inhibition rate [3, 9] was “(31%)”.
For `CC(=O)O` [3.5% acetic acid, acetic acid], the “Intratumoral injection Tumor inhibition rate” value [3, 8] was 64%, the “Intratumoral injection Tumor weight” value [3, 8] was 0.84 ± 0.23 g and the “Tumor inhibition rate of intraperitoneal injection” value [3, 8] was 6%.
For `O=c1[nH]cc(F)c(=O)[nH]1` [0.75% 5-fluorouracil, 5-fluorouracil], the Tumor inhibition rate [3, 7] was “(63%)”.
In the case of `N[C@@H](CCC(=O)N[C@@H](CS)C(=O)NCC(=O)O)C(=O)O` [5% glutathione, Reduced glutathione], the Tumor inhibition rate [1] is reported as 32%, the Tumor inhibition rate [3, 9] is reported as “(31%)” and the Tumor inhibition rate [3, 7] is reported as “(32%)”.
For `Cl` [2% hydrochloric acid, hydrochloric acid], the Tumor inhibition rate [3, 9] was “(83%)”.
With `Cl.N[C@@H](CCC(=O)O)C(=O)O` [0.25% glutamic hydrochloride, L-glutamic hydrochloride] the Tumor inhibition rate ([1]; hydrochloride) was 13%.
Molecule `N=C(N)NCCC[C@H](N)C(=O)O` [1% arginine, L-arginine] has a Tumor inhibition rate [1] of 17%.
In the case of `Cl.N[C@@H](CCC(=O)O)C(=O)O` [5% glutamic hydrochloride, L-glutamic hydrochloride], the Tumor inhibition rate ([1]; hydrochloride) is reported as 76%.
Molecule `N[C@@H](CCC(=O)N[C@@H](CS)C(=O)NCC(=O)O)C(=O)O` [12.5% glutathione, Reduced glutathione] has a Tumor inhibition rate [1] of 66%.
With `N[C@@H](CCC(=O)N[C@@H](CS)C(=O)NCC(=O)O)C(=O)O` [2.5% glutathione, Reduced glutathione] the Tumor inhibition rate [3, 9] was “(12%)*” and the Tumor inhibition rate [3, 7] was “(12%)”.
For `N=C(N)NCCC[C@H](N)C(=O)O` [3% arginine, L-arginine], the Tumor inhibition rate [1] was 19%.
Molecule `N[C@@H](CCC(=O)N[C@@H](CS)C(=O)NCC(=O)O)C(=O)O` [7.5% glutathione, Reduced glutathione] has a Tumor inhibition rate [1] of 45%.
With `O=c1[nH]cc(F)c(=O)[nH]1` [1% 5-fluorouracil, 5-fluorouracil] the “Tumor inhibition rate of intraperitoneal injection” value [1] was 63%, the “Tumor inhibition rate of intratumoral injection” value [1] was 59% and the “Intratumoral injection Tumor inhibition rate” value [3, 8] was 66%. For the same molecule, the “Intratumoral injection Tumor weight” value [3, 8] was 0.78 ± 0.21 g, the “Tumor inhibition rate of intraperitoneal injection” value [3, 8] was 59% and the “Intratumoral injection Tumor inhibition rate” value [3, 10] was 67%. The “Intratumoral injection Tumor weight” value [3, 10] was 0.84 ± 0.25 g, the “Tumor inhibition rate of intraperitoneal injection” value [3, 10] was 58% and the Tumor inhibition rate [3, 7] was “(66%)”. For the same molecule, the “Y(%) tumor inhibition rate” value ([3]; Table 18, avg tumor volume 186 mm^3) was 61%, the “Y(%) tumor inhibition rate” value ([3]; Table 19, avg tumor volume 172 mm^3) was 63% and the “Intratumoral injection Tumor inhibition rate” value (breast cancer 4T1 cells) was 51%. For the same molecule, the “Intratumoral injection Tumor weight” value (breast cancer 4T1 cells) was 0.63 ± 0.21 g, the Tumor inhibition rate (breast cancer 4T1 cells; [4]) was 53% and the Tumor weight (breast cancer 4T1 cells; [4]) was 0.73 ± 0.21 g.
In the case of `NCCCC[C@H](N)C(=O)O` [20% lysine, L-lysine], the “Tumor inhibition rate of intraperitoneal injection” value [1] is reported as 53% and the “Tumor inhibition rate of intratumoral injection” value [1] is reported as 1%.
With `Cl` [0.5% hydrochloric acid, hydrochloric acid] the Tumor inhibition rate [3, 9] was “(53%)”.
For `Cl` [1% hydrochloric acid, hydrochloric acid], the Tumor inhibition rate [3, 9] was “(68%)”.
In the case of `CC(=O)O` [10% acetic acid, acetic acid], the “Intratumoral injection Tumor inhibition rate” value (breast cancer 4T1 cells) is reported as 53% and the “Intratumoral injection Tumor weight” value (breast cancer 4T1 cells) is reported as 0.60 ± 0.21 g.
With `[Na+].[OH-]` [7% NaOH, sodium hydroxide] the Tumor inhibition rate (breast cancer 4T1 cells; [6]) was 75% and the “Tumor weight (x ± s)” value (breast cancer 4T1 cells; [6]) was 0.59 g.
`N[C@@H](CCC(=O)N[C@@H](CS)C(=O)NCC(=O)O)C(=O)O` [2% glutathione, Reduced glutathione] gave a Tumor inhibition rate [1] of 13%.
For `[Na+].[OH-]` [0.5% NaOH, sodium hydroxide], the Tumor inhibition rate (breast cancer 4T1 cells; [6]) was 31% and the “Tumor weight (x ± s)” value (breast cancer 4T1 cells; [6]) was 1.54 g.
With `CN(C)c1ccc2nc3ccc(=[N+](C)C)cc-3sc2c1` [0.35% methylene blue, Methylene blue] the Tumor inhibition rate [3, 9] was “(18%)”.
`Cl.N[C@@H](CCC(=O)O)C(=O)O` [0.5% glutamic hydrochloride, L-glutamic hydrochloride] showed a Tumor inhibition rate ([1]; hydrochloride) of 11%.
With `N=C(N)NCCC[C@H](N)C(=O)O` [7.5% arginine, L-arginine] the Tumor inhibition rate [1] was 21%.
In the case of `N=C(N)NCCC[C@H](N)C(=O)O` [2% arginine, L-arginine], the Tumor inhibition rate [1] is reported as 15%.
In the case of `CN(C)c1ccc2nc3ccc(=[N+](C)C)cc-3sc2c1` [0.25% methylene blue, Methylene blue], the Tumor inhibition rate [3, 9] is reported as “(11%)”.
For `O=c1[nH]cc(F)c(=O)[nH]1` [1.5% 5-fluorouracil, 5-fluorouracil], the Tumor inhibition rate [3, 7] was “(69%)”.
With `[Cl-].[K+]` [2% KCl, potassium chloride] the Tumor inhibition rate (breast cancer 4T1 cells; [11]) was 11% and the “Tumor weight (x ± s)” value (breast cancer 4T1 cells; [11]) was 2.19 ± 0.31 g.
For `CC(=O)O` [2% acetic acid, acetic acid], the Tumor inhibition rate [3, 9] was “(46%)”.
With `Cl.N[C@@H](CCC(=O)O)C(=O)O` [2% glutamic hydrochloride, L-glutamic hydrochloride] the Tumor inhibition rate ([1]; hydrochloride) was 49%.
In the case of `NCC(=O)O` [20% glycine, Glycine], the “Tumor inhibition rate of intraperitoneal injection” value [1] is reported as 52%, the “Tumor inhibition rate of intratumoral injection” value [1] is reported as 4% and the “Intratumoral injection Tumor inhibition rate” value [3, 10] is reported as 54%. The “Intratumoral injection Tumor weight” value [3, 10] was 1.17 ± 0.28 g, the “Tumor inhibition rate of intraperitoneal injection” value [3, 10] was 2% and the “Intratumoral injection Tumor inhibition rate” value (breast cancer 4T1 cells) was 18%. The “Intratumoral injection Tumor weight” value (breast cancer 4T1 cells) was 1.05 ± 0.32 g.
In the case of `O=C1OC2(c3cc(I)c(O)c(I)c3Oc3c2cc(I)c(O)c3I)c2c(Cl)c(Cl)c(Cl)c(Cl)c21` [10% Bengal Red, Bengal Red], the Tumor inhibition rate [3, 9] is reported as “(63%)”.
Molecule `Cl.N[C@@H](CCC(=O)O)C(=O)O` [1% glutamic hydrochloride, L-glutamic hydrochloride] has a Tumor inhibition rate ([1]; hydrochloride) of 18%.
